Measured values taken from patent publication US20250250252A1, “PIPERIDINYLBENZONITRILE DERIVATIVES AS INHIBITORS OF GLUTAMINYL-PEPTIDE CYCLOTRANSFERASE AND GLUTAMINYL-PEPTIDE CYCLOTRANSFERASE LIKE PROTEIN” (Boehringer Ingelheim International GmbH, priority 2024, published 2025).

Columns and labels:
[1] = test system: SIRPα signalling induced by Raji cells; assay: Assay B: SIRPα signalling assay using Raji cells; type: cell-based; details: Homo sapiens, read-out: Inhibition of SIRPα signalling induced by Raji cells: IC50
Experimental: Bioassay reagent 1 of the PathHunter Bioassay detection kit (DiscoverX 93-0001) was added to each well of the plate using a multichannel pipette followed by a 15 min incubation at room temperature. Afterwards bioassay reagent 2 was added followed by 60 min incubation at room temperature (incubation in the dark).
The analysis of the data was performed using the luminescence signal generated by betagalactosidase in the PathHunter reporter cell line. The luminescence measurement was done using a Pherastar Multi-Mode Reader.

QPCT = QPCT (Homo sapiens (Human), UniProt Q16769); assay: Assay A: biochemical QPCT activity assay (MALDI-TOF MS); details: read-out: Inhibition of QPCT: IC50
Experimental: (§1) QPCT or QPCTL dependent conversion of N-terminal glutamine to pyroglutamate of CD47 was monitored via MALDI-TOF MS. Test compounds were dissolved in 100% DMSO and serially diluted into clear 1,536-well microtiter plates. Enzymatic reactions were set up in assay buffer containing 20 mM Tris pH 7.5, 0.1 mM TCEP, 0.01% BSA, and 0.001% Tween20. […] The plates were incubated for 10 min in a humidified incubator at 24° C. Subsequently, 2.5 μL of CD47 peptide substrate surrogate (^19[…]^33) was added to each well (final concentration: 10 μM for QPCTL/20 μM for QPCT). The plates were mixed for 30 sec at 1,000 rpm and subsequently incubated for 40 min in a humidified incubator at 24° C. […] The plates were sealed with an adhesive foil, mixed for 30 s at 1,000 rpm and stored at room temperature until preparation of the MALDI target plates. […] QPCT or QPCTL activity was monitored by calculating the ratio between product and internal standard signals followed by normalization to high (100% activity) and low (0% activity) controls. Determination of compound potencies was obtained by fitting the dose-response data to a four-parameter logistical equation.

CYP3A4 mRNA = assay: Assay D: CYP induction screening assay in primary human hepatocytes; type: in vitro ADME; details: 48 h
Experimental: Cryopreserved plateable human hepatocytes (single donor, BioIVT) were thawed and plated in Collagen-I coated 96-well-plates at a cell density of 0.07 million cells per well.
After a 6 h attachment period, the seeding medium was replaced by serum-free William's medium E supplemented with Matrigel (0.25 mg/ml) and allowed to recover overnight. 24 h post-seeding, serum-free Williams E medium containing the test compound at a final concentration of 10 μM and a final DMSO content of 0.1% and 0.1% DMSO (solvents treated control), respectively, was added to predefined wells. Exposure solutions were renewed after 24 h.
After 48 h of treatment in total, the effect of the test compounds on CYP3A4 mRNA expression was assessed using the QuantiGene Plex Gene Expression Assay. Hepatocytes were lysed and total RNA was extracted using the QuantiGene Sample Processing Kit according to the instructions of the manufacturer.
mRNA quantification was conducted using a customized QuantiGene Plex Panel to analyse CYP3A4 and the housekeeper genes RPL32, EIF4E2 and GUSB according to the instructions of the manufacturer and measured on a Luminex™ instrument. Signal was reported as median fluorescence intensity (MFI), which is proportional to the number of target RNA molecules present in the sample.
For calculation of CYP3A4 mRNA induction, the signal for CYP3A4 was normalized against the geometric mean of the signal obtained for the housekeeper genes for hepatocytes exposed to test compounds in relation to solvent-treated samples according to the following equation:
n-fold induction=(MFI CYP3A4 (treated)/Xgeo MFI (RPL32,EIF4E2,GUSB))/(MFI CYP3A4 (solvent control)/Xgeo MFI (RPL32,EIF4E2,GUSB))

[2] = test system: SIRPα signalling induced by A549 cells; assay: Assay B: SIRPα signalling assay using A549 cells; type: cell-based; details: Homo sapiens, read-out: Inhibition of SIRPα signalling induced by A549 cells: IC50
Experimental: Two cell types are independently used: the Raji cell line (lymphoblast-like human cell line derived from B lymphocytes from a Burkitt's lymphoma patient in 1963) and A549 cells (adenocarcinomic human alveolar basal epithelial cells).
Test compounds were dissolved in 100% DMSO and serially diluted into a white 384-well microtiter cell culture plate (PerkinElmer #60076780 in case of Raji assay; PDL-coated plates Greiner #781945 in case of A549 assay). 5000 Raji cells (ATCC #CC86) or 5000 A549 cells (ATCC #CCL-185) in Assay Complete Cell Plating reagent 30 (DiscoverX 93-0563R30B) were added per well. The assay plate was incubated for 48 h at 37° C., 95% humidity and 5% CO2. 15000 reporter cells (Jurkat PathHunter SIRPαV1, DiscoverX #93-1135C19) were added to each well, and the plate was incubated for 5 h at 37° C., 95% humidity and 5% CO2. Bioassay reagent 1 of the PathHunter Bioassay detection kit (DiscoverX 93-0001) was added to each well of the plate using a multichannel pipette followed by a 15 min incubation at room temperature. Afterwards bioassay reagent 2 was added followed by 60 min incubation at room temperature (incubation in the dark).
The analysis of the data was performed using the luminescence signal generated by betagalactosidase in the PathHunter reporter cell line. The luminescence measurement was done using a Pherastar Multi-Mode Reader. Dose-response curves & IC50 data were calculated with 4-parameter sigmoidal dose response formula.

murine hepatocytes = assay: Assay E: Stability in murine hepatocytes; type: in vitro ADME, mouse; details: 1 μM
Experimental: The metabolic degradation of the test compound is assayed in a murine hepatocyte suspension.
Murine hepatocytes (typically cryopreserved) are incubated in an appropriate buffer system (e.g. Dulbecco's modified eagle medium plus 3.5 μg glucagon/500 mL, 2.5 mg insulin/500 mL and 3.75 mg/500 mL hydrocortison) containing 5% species serum.
Following a (typically) 30 min preincubation in an incubator (37° C., 10% CO2) 5 μl of test compound solution (80 μM; from 2 mM in DMSO stock solution diluted 1:25 with medium) are added into 395 μl hepatocyte suspension (cell density in the range 0.25-5 Mio cells/mL, typically 1 Mio cells/mL; final concentration of test compound 1 μM, final DMSO concentration 0.05%).
The cells are incubated for six hours (incubator, orbital shaker) and samples (2 μl) are taken at 0, 0.5, 1, 2, 4 and 6 hours. Samples are transferred into acetonitrile and pelleted by centrifugation (5 min). The supernatant is transferred to a new 96-deepwell plate, evaporated under nitrogen and resuspended.
CLint is calculated as follows CL_[…]=Dose/AUC=(C0/CD)/(AUD+clast/k)×1000/60. C0: initial concentration in the incubation [μM], CD: cell density of vital cells [10e6cells/mL], AUD: area under the data [μM×h], clast: concentration of last data point [μM], k: slope of the regression line for parent decline [h−1].
The calculated in vitro hepatic intrinsic clearance can be scaled up to the intrinsic in vivo hepatic Clearance and used to predict hepatic in vivo blood clearance (CL) by the use of a liver model (well stirred model).
CL_[…]_INVIVO[ml/min/kg]=(CL_[…][μL/min/10e6cells]×hepatocellularity[10e6cells/g liver]×liver factor[g/kg bodyweight])/1000
CL[ml/min/kg]=CL_[…]_INVIVO[ml/min/kg]×hepatic blood flow[ml/min/kg]/(CL_[…]_INVIVO[ml/min/kg]+hepatic blood flow[ml/min/kg])
Hepatocellularity,mouse:120×10e6cells/g liver
Liver factor,mouse:55 g/kg bodyweight
Blood flow,mouse:90 ml/(min×kg)

[3] = Assay C: Permeability in CACO-2 cells; type: in vitro ADME; details: human, Assay C; for efflux ratio: Caco-2, pH 7.2, permeability B-A/permeability A-B, read-out: Efflux Ratio; for Papp A→B: pH 7.2, CACO-2 cells
Experimental: Caco-2 cells (1-2×10^5 cells/1 cm^2 area) are seeded on filter inserts (Costar transwell polycarbonate or PET filters, 0.4 μm pore size) and cultured (DMEM) for 10 to 25 days. Compounds are dissolved in appropriate solvent (like DMSO, 1-20 mM stock solutions). […] The transport solution (TL) is applied to the apical or basolateral donor side for measuring A-B or B-A permeability (3 filter replicates), respectively. Samples are collected at the start and end of experiment from the donor and at various time intervals for up to 2 hours also from the receiver side for concentration measurement by HPLC-MS/MS or scintillation counting. Sampled receiver volumes are replaced with fresh receiver solution.
Efflux ratio (ER)=permeability B-A/permeability A-B

QPCTL = QPCTL (Homo sapiens (Human), UniProt Q9NXS2); assay: Assay A: biochemical QPCTL activity assay (MALDI-TOF MS); details: read-out: Inhibition of QPCTL: IC50
Experimental: as §1

Sequence of QPCT (Q16769 29-361): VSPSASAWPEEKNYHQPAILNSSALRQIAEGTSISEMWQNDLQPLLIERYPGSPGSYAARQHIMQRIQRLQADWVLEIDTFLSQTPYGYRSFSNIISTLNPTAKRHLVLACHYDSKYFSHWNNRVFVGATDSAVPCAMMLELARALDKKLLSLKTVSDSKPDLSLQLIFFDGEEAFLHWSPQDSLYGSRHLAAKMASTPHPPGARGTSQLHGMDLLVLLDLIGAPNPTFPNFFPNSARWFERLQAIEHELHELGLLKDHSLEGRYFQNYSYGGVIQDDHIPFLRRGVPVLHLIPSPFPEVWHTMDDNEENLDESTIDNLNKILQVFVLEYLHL
Sequence of QPCTL (Q9NXS2 whole entry): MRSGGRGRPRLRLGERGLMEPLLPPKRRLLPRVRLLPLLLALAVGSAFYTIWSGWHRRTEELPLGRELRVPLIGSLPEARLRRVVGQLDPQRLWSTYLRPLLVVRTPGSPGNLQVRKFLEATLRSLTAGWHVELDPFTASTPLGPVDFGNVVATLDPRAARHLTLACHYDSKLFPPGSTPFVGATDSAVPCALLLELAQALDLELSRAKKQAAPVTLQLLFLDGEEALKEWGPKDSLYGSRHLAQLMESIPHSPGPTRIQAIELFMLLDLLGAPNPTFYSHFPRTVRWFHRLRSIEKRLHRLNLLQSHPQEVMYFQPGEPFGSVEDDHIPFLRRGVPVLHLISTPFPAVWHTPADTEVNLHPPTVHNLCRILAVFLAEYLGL

| SMILES | IC50 [1] | IC50 (QPCT) | n-fold induction of CYP3A4 at 10 μM (CYP3A4 mRNA) | IC50 [2] | Mouse Hepatocyte Stability QH (murine hepatocytes) | efflux ratio [3] | Papp A→B [3] | IC50 (QPCTL) |
| --- | --- | --- | --- | --- | --- | --- | --- | --- |
| Cc1ncc(-c2cc(C#N)c(N3CCC(F)(c4nncn4C)CC3)c(-c3ccc(F)nc3)c2)o1 [Example 2] | 180 nM | 4 nM | 1.6 n-fold | 36 nM | 15% | 3.3 | 26 ×10⁻⁶ cm/s | 2 nM |
| Cc1nn(C)cc1-c1cc(C#N)c(N2CCC(F)(c3nncn3C)CC2)c(-c2ccc(F)nc2)c1 [Example 4] | 90 nM | 3 nM | 2.0 n-fold | 26 nM | 21% | 8.8 | 5 ×10⁻⁶ cm/s | 2 nM |
| Cn1cnnc1C1(F)CCN(c2c(C#N)cc(-c3cnc(C(F)(F)F)nc3)cc2-c2ccc(F)nc2)CC1 [Example 9] | 108 nM | 6 nM | 1.4 n-fold | 67 nM | 20% | 5.2 | 4.8 ×10⁻⁶ cm/s | 3 nM |
| Cn1cc(-c2cc(C#N)c(N3CCC(F)(c4nncn4C)CC3)c(-c3ccc(F)nc3)c2)cn1 [Example 5] | 52 nM | 2 nM | 7.7 n-fold | 25 nM | <12% | 6.7 | 5.4 ×10⁻⁶ cm/s | 2 nM |
| Cc1ncc(-c2cc(C#N)c(N3CCC(F)(c4nncn4C)CC3)c(-c3ccc(F)nc3)c2)cn1 [Example 7] | 100 nM | 4 nM | 0.7 n-fold | 37 nM | 48% | 7.9 | 4.8 ×10⁻⁶ cm/s | 3 nM |
| Cc1nn(C)c(C)c1-c1cc(C#N)c(N2CCC(F)(c3nncn3C)CC2)c(-c2ccc(F)nc2)c1 [Example 3] | 330 nM | 5 nM | 1.7 n-fold | 45 nM | 25% | 7.8 | 11 ×10⁻⁶ cm/s | 4 nM |
| Cn1cnnc1C1(F)CCN(c2c(C#N)cc(-c3cccnc3)cc2-c2ccc(F)nc2)CC1 [Example 6] | 139 nM | 4 nM | 1.8 n-fold | 33 nM | 35% | 4.6 | 19 ×10⁻⁶ cm/s | 3 nM |
| Cn1cnnc1C1(F)CCN(c2c(C#N)cc(-c3ccnnc3)cc2-c2ccc(F)nc2)CC1 [Example 8] | 267 nM | 3 nM | 0.9 n-fold | 651 nM | 20% | 20.3 | 0.7 ×10⁻⁶ cm/s | 2 nM |
| Cn1cc(-c2ccc(-c3ccc(F)nc3)c(N3CCC(c4nncn4C)CC3)c2C#N)cn1 [Compound 35, reference compound] | 28 nM | 4 nM | 3.0 n-fold | 9 nM | 16% | 12.2 | 4.9 ×10⁻⁶ cm/s | 2 nM |
